Data published in patent US12685312B2, “Sulfonamide apyrase inhibitors” (Texas Crop Science, Inc., priority 2022, dated 2026).

tested on: apyrase; assay: Screen for apyrase inhibitors (Method 1, in vitro phosphate-release absorbance assay); assay type: biochemical; conditions: inhibitor conc at 1 mM stock, 1 hr room temperature, absorbance 630 nm; rounded average of two assay results
How it was run: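 Phosphate-release colorimetric assay (Windsor method) in 60 mM Hepes, 3 mM MgCl2, 3 mM CaCl2, 3 mM ATP, pH 6.5, with compound or DMSO control added. Released phosphate developed with ammonium molybdate and ascorbic acid/TCA, then stopped with citrate/acetic acid.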

% Inhibition of Apyrase [%] | Structure (SMILES)
71 | O=C(NC12CC3CC(CC(C3)C1)C2)c1cccc(S(=O)(=O)Nc2ccc(Br)cc2)c1 [I-240, N-(adamantan-1-yl)-3-(N-(4-bromophenyl)sulfamoyl)benzamide]
18 | O=C(Nc1ccccc1NS(=O)(=O)c1cccs1)c1cc(Cl)ccc1F [I-840, 5-chloro-2-fluoro-N-(2-(thiophene-2-sulfonamido)phenyl)benzamide]
65 | O=C(Nc1cccc(NS(=O)(=O)c2ccc(Cl)cc2)c1)c1ccc2[nH]nnc2c1 [I-340, N-(3-((4-chlorophenyl)sulfonamido)phenyl)-1H-benzo[d][1,2,3]triazole-5-carboxamide]
52 | O=C(Nc1ccccc1NS(=O)(=O)c1cccs1)c1cc(Br)ccc1F [I-835, 5-bromo-2-fluoro-N-(2-(thiophene-2-sulfonamido)phenyl)benzamide]
62 | O=C(Nc1ccc2c(c1)CCC2)c1cccc(NS(=O)(=O)c2cccs2)c1 [I-632, N-(2,3-dihydro-1H-inden-5-yl)-3-(thiophene-2-sulfonamido)benzamide]
62 | Cc1ccc(F)c(NC(=O)c2cccc(S(=O)(=O)Nc3ccc4c(c3)OCO4)c2)c1 [I-252, 3-(N-(benzo[d][1,3]dioxol-5-yl)sulfamoyl)-N-(2-fluoro-5-methylphenyl)benzamide]
73 | O=C(Nc1cccc(NS(=O)(=O)c2c(Br)cc3[nH]c(=O)oc3c2Cl)c1)c1ccc(Br)cc1 [I-337, 4-bromo-N-(3-((5-bromo-7-chloro-2-oxo-2,3-dihydrobenzo[d]oxazole)-6-sulfonamido)phenyl)benzamide]
28 | O=C(Nc1cccc(S(=O)(=O)Nc2cccc(C(F)(F)F)c2)c1)c1cccnc1 [I-758, N-(3-(N-(3-(trifluoromethyl)phenyl)sulfamoyl)phenyl) nicotinamide]
13 | O=C(Nc1ccc2c(c1)OCCCO2)c1ccc(S(=O)(=O)Nc2ccc(F)cc2)cc1 [I-415, N-(3,4-dihydro-2H-benzo[b][1,4]dioxepin-7-yl)-4-(N-(4-fluorophenyl)sulfamoyl)benzamide]
51 | O=C(Nc1ccc2c(c1)OCO2)c1ccc(Cl)c(S(=O)(=O)N2CCc3ccccc32)c1 [I-562, N-(benzo[d][1,3]dioxol-5-yl)-4-chloro-3-(indolin-1-ylsulfonyl)benzamide]
58 | COc1ccc(N(C)S(=O)(=O)c2cccc(C(=O)Nc3ccc4c(c3)OCO4)c2)cc1 [I-479, N-(benzo[d][1,3]dioxol-5-yl)-3-(N-(4-methoxyphenyl)-N-methylsulfamoyl)benzamide]
53 | COc1ccc(N(C)S(=O)(=O)c2cccc(C(=O)Nc3ccc(OC)c(Cl)c3)c2)cc1 [I-546, N-(3-chloro-4-methoxyphenyl)-3-(N-(4-methoxyphenyl)-N-methylsulfamoyl)benzamide]
57 | CCOC(=O)c1c(NC(=O)c2cccc(S(=O)(=O)Nc3ccc(Cl)cc3)c2)sc2c1CCCC2 [I-506, ethyl 2-(3-(N-(4-chlorophenyl)sulfamoyl)benzamido)-4,5,6,7-tetrahydrobenzo[b]thiophene-3-carboxylate]
55 | COc1cc(OC)c(NS(=O)(=O)c2cc(C(=O)Nc3ccc(OC(F)(F)F)cc3)ccc2C)cc1Cl [I-530, 3-(N-(5-chloro-2,4-dimethoxyphenyl)sulfamoyl)-4-methyl-N-(4-(trifluoromethoxy)phenyl)benzamide]
53 | COc1ccc(C(=O)N2c3ccccc3CC2C)cc1S(=O)(=O)Nc1ccc(C)cc1 (stereo not drawn) [I-545, 2-methoxy-5-(2-methylindoline-1-carbonyl)-N-(p-tolyl)benzenesulfonamide]
52 | O=C(Nc1ccc(S(=O)(=O)Nc2ncccn2)cc1)c1cccc(S(=O)(=O)N2CCc3ccccc32)c1 [I-554, 3-(indolin-1-ylsulfonyl)-N-(4-(N-(pyrimidin-2-yl)sulfamoyl)phenyl)benzamide]
44 | COc1ccc(NC(=O)c2cccc(S(=O)(=O)Nc3ccc4c(c3)OCO4)c2)cc1OC [I-277, 3-(N-(benzo[d][1,3]dioxol-5-yl)sulfamoyl)-N-(3,4-dimethoxyphenyl)benzamide]
58 | O=C(c1cccc(S(=O)(=O)N2CCCc3ccccc32)c1)N1CCc2ccccc21 [I-485, (3-((3,4-dihydroquinolin-1(2H)-yl)sulfonyl)phenyl)(indolin-1-yl)methanone]
77 | CN(c1ccccc1)S(=O)(=O)c1ccccc1C(=O)Nc1ccc2c(c1)OCO2 [I-809, N-(benzo[d][1,3]dioxol-5-yl)-2-(N-methyl-N-phenylsulfamoyl)benzamide]
58 | Cc1cc(C(=O)Nc2cccc(S(=O)(=O)Nc3ccccc3Cl)c2)sc1C [I-713, N-(3-(N-(2-chlorophenyl)sulfamoyl)phenyl)-4,5-dimethylthiophene-2-carboxamide]
23 | O=C(Nc1ccccc1Cl)c1cccc(S(=O)(=O)N2CCc3ccccc32)c1 [I-604, N-(2-chlorophenyl)-3-(indolin-1-ylsulfonyl)benzamide]

% Inhibition of Apyrase [%] | Structure (SMILES)
54 | O=C(Nc1ccc2c(c1)CCC2)c1cccc(S(=O)(=O)N2CCc3ccccc32)c1 [I-539, N-(2,3-dihydro-1H-inden-5-yl)-3-(indolin-1-ylsulfonyl)benzamide]
42 | CC(=O)Nc1cccc(NC(=O)c2cccc(S(=O)(=O)N3c4ccccc4CC3C)c2)c1 (stereo not drawn) [I-589, N-(3-acetamidophenyl)-3-((2-methylindolin-1-yl)sulfonyl)benzamide]
50 | COc1ccc(NC(=O)c2ccc(NS(=O)(=O)c3ccc4c(c3)OCCO4)cc2)cc1 [I-941, 4-((2,3-dihydrobenzo[b][1,4]dioxine)-6-sulfonamido)-N-(4-methoxyphenyl)benzamide]
19 | COc1ccc(C(=O)Nc2ccc(Cl)cc2)cc1S(=O)(=O)Nc1ccc(Br)cc1 [I-33, 3-(N-(4-bromophenyl)sulfamoyl)-N-(4-chlorophenyl)-4-methoxybenzamide]
72 | Cc1ccc(NC(=O)c2ccc(S(=O)(=O)Nc3cccc(C(F)(F)F)c3)cc2)c(C)c1 [I-225, N-(2,4-dimethylphenyl)-4-(N-(3-(trifluoromethyl)phenyl)sulfamoyl)benzamide]
45 | O=C(Nc1ccccc1N1CCOCC1)c1cccc(S(=O)(=O)N2CCc3ccccc32)c1 [I-585, 3-(indolin-1-ylsulfonyl)-N-(2-morpholinophenyl)benzamide]
68 | Cc1cc(C(=O)Nc2cccc(S(=O)(=O)Nc3ccc(Br)cc3)c2)ccc1[N+](=O)[O-] [I-182, N-(3-(N-(4-bromophenyl)sulfamoyl)phenyl)-3-methyl-4-nitrobenzamide]
61 | O=C(Nc1cccc(Cl)c1)c1ccc(NS(=O)(=O)c2ccc(F)c(F)c2)cc1 [I-906, N-(3-chlorophenyl)-4-((3,4-difluorophenyl)sulfonamido)benzamide]
61 | COc1cc(NC(=O)c2cccc(S(=O)(=O)Nc3ccc4c(c3)OCO4)c2)cc(OC)c1 [I-257, 3-(N-(benzo[d][1,3]dioxol-5-yl)sulfamoyl)-N-(3,5-dimethoxyphenyl)benzamide]
6 | COc1ccccc1NS(=O)(=O)c1cccc(NC(=O)c2cccnc2OC)c1 [I-770, 2-methoxy-N-(3-(N-(2-methoxyphenyl)sulfamoyl)phenyl) nicotinamide]
59 | COc1ccccc1NS(=O)(=O)c1cccc(C(=O)Nc2c(C)nc(O)nc2O)c1 [I-461, N-(2,4-dihydroxy-6-methylpyrimidin-5-yl)-3-(N-(2-methoxyphenyl)sulfamoyl)benzamide]
59 | COc1ccccc1NC(=O)c1cccc(S(=O)(=O)N2CCc3ccccc32)c1 [I-467, 3-(indolin-1-ylsulfonyl)-N-(2-methoxyphenyl)benzamide]
60 | Cc1c(Cl)cccc1NC(=O)c1cccc(S(=O)(=O)N2CCc3ccccc32)c1 [I-455, N-(3-chloro-2-methylphenyl)-3-(indolin-1-ylsulfonyl)benzamide]
60 | Cc1ccc(NC(=O)c2ccc(Cl)c(S(=O)(=O)N3CCc4ccccc43)c2)cc1 [I-453, 4-chloro-3-(indolin-1-ylsulfonyl)-N-(p-tolyl)benzamide]
59 | CC1Cc2ccccc2N1C(=O)c1ccc(NS(=O)(=O)c2ccccc2)cc1 (stereo not drawn) [I-911, N-(4-(2-methylindoline-1-carbonyl)phenyl)benzenesulfonamide]
43 | COc1ccc(NS(=O)(=O)c2cccc(C(=O)Nc3ccc(Br)cc3)c2)cc1 [I-278, N-(4-bromophenyl)-3-(N-(4-methoxyphenyl)sulfamoyl)benzamide]
25 | Cc1ccnc(NC(=O)c2cccc(NS(=O)(=O)c3ccc4c(c3)OCCCO4)c2)c1 [I-663, 3-((3,4-dihydro-2H-benzo[b][1,4]dioxepine)-7-sulfonamido)-N-(4-methylpyridin-2-yl)benzamide]
67 | Cc1cc(F)ccc1NC(=O)c1ccc(S(=O)(=O)Nc2cccc(C(F)(F)F)c2)cc1 [I-183, N-(4-fluoro-2-methylphenyl)-4-(N-(3-(trifluoromethyl)phenyl)sulfamoyl)benzamide]
74 | O=C(Nc1cccc(F)c1)c1ccc(S(=O)(=O)Nc2ccc(Cl)cc2)cc1 [I-223, 4-(N-(4-chlorophenyl)sulfamoyl)-N-(3-fluorophenyl)benzamide]
66 | O=C(Nc1cccc2cccnc12)c1cccc(NS(=O)(=O)c2cccs2)c1 [I-630, N-(quinolin-8-yl)-3-(thiophene-2-sulfonamido)benzamide]
25 | Cc1ccc(C)c(S(=O)(=O)Nc2ccc(C(=O)Nc3cccc(C#N)c3)cc2)c1 [I-954, N-(3-cyanophenyl)-4-((2,5-dimethylphenyl)sulfonamido)benzamide]
